Assay results from US7235584B2, “Non-psychotropic cannabinoids” (Pharmos Corporation, priority 2000, dated 2007).

Key:
[1] = system: T1, nitric oxide synthase (NOS); assay: Inhibition of nitric oxide synthase, fluorimetric nitrite assay in LPS-stimulated macrophage supernatants; type: cell-based; settings: macrophage cell cultures
T1 construct: endogenous in cells
Description: As one aspect of the anti-oxidative potential of the novel analogs they were tested for their ability to inhibit the enzyme nitric oxide synthase (NOS). This assay can also serve as another indication of the anti-inflammatory cascade, as well as the anti-oxidative mechanisms.
The final products of NOS are Nitrite (NO2) and Nitrate (NO3). The in vitro fluorimetric assay provides an accurate method for the measurement of the Nitrite, which is the majority of NO products. The principle of the fluorimetric assay is based on the addition of DAN (2,3-diaminonaphthalene) to the aliquots of the supernatants collected from macrophage cell cultures incubated with the new analogs and stimulated with LPS. Following, NaOH was added to convert Nitrite to a fluorescent compound 1(H)-naphthtriazole. The fluorescence was measured immediately in a fluorimeter using excitation wavelength of 365 nm and an emission wavelength of 450 nm.

[2] = system: tail flick model in mice; assay: Tail flick model: analgesic effect and tolerance to morphine; type: in vivo, ICR male mice; settings: for analgesic activity administered separately: escalating doses of up to 10 mg/kg i.p.
Description: A mice model of acute pain, the tail flick model, was used to test the ability of compounds to prolong the analgesic activity of opioids, by preventing the development of tolerance, and their ability to reverse established tolerance.
The following animal model of acute pain was used to assess the potential analgesic effects of test compounds either alone or in combination with morphine. […] In this model the nociceptive stimulus is thermal and the latency time till the animal flicks its tail is monitored (Le Bars D., Gozariu M. & Cadden S. W., Pharmacol. Rev. 53: 597–652, 2001).
Hyperalgesia to radiant heat was assessed as follows. ICR male mice (20–30 g average body weight, Harlan, Israel) were injected with test compounds i.p. at the volume dose of 5 ml/kg. Each treatment group contained at least 6 animals. The test compounds were dissolved in Cremophor®:ethanol (70:30 weight/weight) and diluted 1:20 in saline prior to injection. Morphine HCl was directly dissolved in saline. Its vehicle was also included as control. Pain threshold was determined 30 minutes post-administration by measuring the foot-withdrawal latency defined as the time from the onset of radiant heat to foot withdrawal. The cut-off time was preset to 10 seconds in order to prevent tissue damage. […] Test compounds (5 mg/kg) and vehicle (5 ml/kg) were administered 15 minutes before morphine and pain threshold was determined 30 minutes after the first injection of morphine on day 1, 5, 8 and 10. […] Pain threshold was determined on day 1 and 10.
In each type of study, the animals were tested on given days 30 minutes after morphine injection in the tail flick apparatus (Socrel, model DS 20). Animals were gently held while their tails were located above the photoelectric cell. The tails were then illuminated (21V) at 2 cm from the distal tip and the latency time, measured in seconds, was recorded in duplicates. The results are expressed either as absolute latency time or as percent of animals that enjoyed significant analgesia as measured by the fact that their latency time is at least twice the latency time for vehicle treated animals. At the end of the study, the animals were euthanized by i.p. injection of 100 mg/kg sodium pentobarbitone.
The differences between the latency times among various treatment groups was analyzed by analysis of variance (ANOVA) followed by post-hoc Duncan test. The differences between the % of animals showing analgesia among various treatment groups was analyzed by analysis of variance (ANOVA) followed by post-hoc Fisher exact test. A value of p<0.05 is considered to be statistically significant.

[3] = system: transient MCAo in rats; assay: Transient MCAo evaluated by the staircase test; type: in vivo, Sprague Dawley rats; settings: for staircase contralateral performance, pellet consumption (in words): administered 2 hours after start of MCAo
Description: The test challenges fine motor, sensory and stereognostic function of the cortex in enabling the forepaw (hand) to identify, grasp and accurately manipulate small objects such as food pellets. Loss of the ability to identify, grasp and manipulate small objects reflects a lesion of the fronto-parietal cortex and is a common and crippling deficit after stroke in humans.
The materials for this procedure are identical to those from Physiological Example 5, except for the different concentrations of PRS-211,095. The procedural differences are as follows: • Male Sprague Dawley rats, 230–270 gr (Harlan, Israel) were used. The following compounds and their respective concentrations were tested:
Dexanabinol and analogs PRS-211,095 and PRS-211,220 in PEG ethanol cosolvent 50 mg/ml. Dexanabinol, the analogs and their vehicle were diluted in Intralipid® 20% (Pharmacia) prior to drug administration.
The procedure is essentially as described in Montoya et al. (Montoya, Campbell-Hope, Pemberton and Dunnet, J. Neurosci. Meth. 36:219–228,1991) Animals were kept under mild food deprivation for 3–5 days, receiving 15-gr. food once a day (between 16:00 and 17:00) and free access to water.
In brief, the staircase box contains two rows of seven stairs in each. Two 45 mg food pellets were placed on each step. Animals were placed in the box for 15 minutes sessions. At the end of the session the number of eaten (grasped) and displaced pellets was counted and recorded. Animals were tested twice a day, 4 hours apart. The first session was performed between 8–9 AM and second between 12–13 PM. The animals were trained until they grasped (ate) at least 8 pellets from each set of stairs for two consecutive sessions. Up to one week after the end of the successful training session the animals underwent transient MCAo.
Transient MCAO was performed in essentially the same manner as described in Physiological example 5 with the following modification at step i:
Two minutes prior to thread removal rats were re-anesthetized and administered IV with Dexanabinol 5 mg/kg, analogs
PRS-211,220 or PRS-211,095 at 0.5, 2.5, 5 or 10 mg/kg or vehicle 5 ml/kg. One additional group was sham-treated.
Animals were allowed to recover from the surgery for five days. The mild food deprivation was re-employed during the days following the ischemic insult. They were tested in the staircase box using the above method for 9–12 days. Animals were weighed twice a week during this period.
At the end of the evaluation period, animals were euthanized with pentobarbitone 100 mg/kg IP. The animals were perfused through the heart with heparinized 4% formaldehyde solution in PBS (pH 7.4). Brains were then removed, and kept in the same solution for at least 24h. Then the brains—from the rostral side of the cortex to the cerebellum—were sunk in 30% sucrose in PBS, cryosectioned (20 μm), dried and stained with thionin for histological evaluation of the brain infarct volume. Eight sections at the levels of: 3.3;+2.8;+1.8; +0.8; −0.4;−1.4; −2.2; and −3.4 from Bregma were measured (Swanson, Rat Brain Atlas, 1992). Sections were captured by a CCD camera (V-tech MP-470) and image analyzed (Scion image 1.62A). Infarct size was determined from the series of the 8 sections by either calculation of the infarct volume (mm3) by summing the series of mean lesion areas of two adjacent sections multiplied by the distance between them or calculation of the mean infarct size as percentage of the contralateral hemisphere size; calculation of the mean of the surviving ipsilateral side as percentage of the contralateral hemisphere size; calculation of the mean ipsilateral side ventricle as percentage of the contralateral hemisphere ventricle.
• a. The infarct size was compared using ANOVA (analysis of variance) followed by Duncan's post hoc test. • b. The staircase task performance was evaluated after collecting the data and compressing it into four blocks of six trials: […]

[4] = 5 mg/kg, administered 3 hours following transient MCAo

T1 sequence (P35228 whole entry): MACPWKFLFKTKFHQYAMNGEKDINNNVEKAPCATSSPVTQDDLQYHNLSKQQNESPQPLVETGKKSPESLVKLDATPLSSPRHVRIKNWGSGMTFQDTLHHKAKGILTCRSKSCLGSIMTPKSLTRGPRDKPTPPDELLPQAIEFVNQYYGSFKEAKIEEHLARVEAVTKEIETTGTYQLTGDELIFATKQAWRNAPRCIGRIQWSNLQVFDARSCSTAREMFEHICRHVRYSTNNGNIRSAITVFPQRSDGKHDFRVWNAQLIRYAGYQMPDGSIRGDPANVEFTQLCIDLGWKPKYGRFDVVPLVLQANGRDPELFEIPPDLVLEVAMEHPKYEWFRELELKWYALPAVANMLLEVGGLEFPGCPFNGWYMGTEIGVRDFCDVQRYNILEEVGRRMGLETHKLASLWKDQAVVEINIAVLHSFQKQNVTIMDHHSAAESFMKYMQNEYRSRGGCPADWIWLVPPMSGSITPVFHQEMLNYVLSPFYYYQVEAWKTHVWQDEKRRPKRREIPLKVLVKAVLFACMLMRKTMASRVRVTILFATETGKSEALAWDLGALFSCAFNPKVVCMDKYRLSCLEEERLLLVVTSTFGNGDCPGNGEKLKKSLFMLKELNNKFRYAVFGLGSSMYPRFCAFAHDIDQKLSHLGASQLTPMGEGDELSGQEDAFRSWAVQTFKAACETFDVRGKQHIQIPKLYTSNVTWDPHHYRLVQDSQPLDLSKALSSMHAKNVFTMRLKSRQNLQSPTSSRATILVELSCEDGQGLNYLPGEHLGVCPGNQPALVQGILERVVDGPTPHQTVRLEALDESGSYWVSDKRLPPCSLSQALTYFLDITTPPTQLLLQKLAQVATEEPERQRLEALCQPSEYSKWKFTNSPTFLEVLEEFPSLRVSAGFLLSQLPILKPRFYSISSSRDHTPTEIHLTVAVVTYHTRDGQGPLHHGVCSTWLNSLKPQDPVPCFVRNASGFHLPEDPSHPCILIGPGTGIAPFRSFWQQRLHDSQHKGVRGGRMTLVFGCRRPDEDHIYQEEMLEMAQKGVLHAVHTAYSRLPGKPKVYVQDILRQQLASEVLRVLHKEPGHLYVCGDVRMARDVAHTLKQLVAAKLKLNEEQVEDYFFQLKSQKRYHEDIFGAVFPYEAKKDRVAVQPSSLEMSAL

SMILES: CCCCCCC(C)(C)c1cc(O)c2c(c1)OC(C)(C)[C@H]1CC=C(Cn3cccn3)C[C@H]21 [211,220-000, (+)-(3S,4S)-6,6-Dimethyl-(1,1-dimethylheptyl)-1-hydroxy-9-(pyrazolomethyl)-6a,7,10,10a-tetrahydro-6H-dibenzo[b,d]pyran]
- inhibition at 10 µM [1]: 24%
- development of tolerance to morphine ([2]; 5 mg/kg in combination with 10 mg/kg i.p. morphine over 10 days): effective in reducing the development of tolerance toward opioid
- analgesic activity administered separately [2]: no significant analgesic activity
- reversal of established tolerance to morphine ([2]; in combination with morphine from day 11, tested day 12, 15, 17, PRS-211,220 5 mg/kg, dextromethorphan 20 mg/kg): trend of reversal at all time points tested which became statistically significant on day 17
- displaced pellets parameter ([3]; 0.5 mg/kg): improved performance
- increase in pellet consumption, session 3 ([3]; 0.5 mg/kg, administered 3 hours following transient MCAo): 27%
- increase in pellet consumption, session 3 ([3]; 0.5 mg/kg, administered 6 hours following transient MCAo): 40%

SMILES: CCCCCCC(C)(C)c1cc(O)c2c(c1)OC(C)(C)C1CC=C(Cn3ccnc3)CC21.Cl (single isomer, unassigned; (+)) [211,095-000, (+)-(3S ,4S )-6,6-Dimethyl-(1,1-dimethylheptyl)-1-hydroxy-9-(imidazolomethyl)-6a,7,10,10a-tetrahydro-6H-dibenzo[b,d]pyran]
- inhibition at 10 µM [1]: 34%
- analgesic activity administered separately [2]: no significant analgesic activity
- staircase contralateral performance, pellet consumption (in words) ([3]; 0.5 mg/kg): moderately improved pellet consumption
- protection of infarct volume (histopathology) ([3]; 2.5 mg/kg): No protection
- staircase contralateral performance, pellet consumption (in words) ([3]; 2.5 mg/kg): moderately improved pellet consumption
- displaced pellets parameter ([3]; 5 mg/kg): improved performance
- staircase contralateral performance, pellet consumption (in words) ([3]; 5 mg/kg): robust improvement
- increase in pellet consumption, session 3 [3, 4]: 17%
- staircase contralateral performance, pellet consumption (in words) ([3]; 10 mg/kg): robust improvement

SMILES: CCCCCCC(C)(C)c1cc(O)c2c(c1)OC(C)(C)C1CC=C(CSc3ncc[nH]3)CC21 (single isomer, unassigned; (+)) [211,092-000]
- inhibition at 10 µM [1]: 86%
- analgesic activity administered separately [2]: no significant analgesic activity
- increase in pellet consumption, session 3 [3, 4]: 58%
- increase in pellet consumption, session 3 ([3]; 5 mg/kg, administered 6 hours following transient MCAo): 30%

SMILES: CCCCCCC(C)(C)c1cc(O)c2c(c1)OC(C)(C)[C@H]1CC=C(CO)CC21 (stereo partly drawn) [211,007-000, 1,1 dimethyl heptyl-(3S,4S)-7-hydroxy-Δ^6-tetrahydrocannabinol]
- inhibition at 10 µM [1]: 20%
- staircase contralateral performance, pellet consumption (in words) ([3]; 0.5 mg/kg): No improvement
- displaced pellets parameter ([3]; 5 mg/kg): improved performance
